Series [1] has as its target T1, GRP78ATPase (ATPase domain of human GRP78, residues 26–407) (Homo sapiens, UniProt P11021).
T1 construct: GRP78ATPase (residues 26–407) was amplified from the full-length human GRP78; hexahistidine tag (pET28-MHL vector) (N); made in house; host or cells: E. coli BL-21(DE3)
Briefly: Surface plasmon resonance (SPR) binding of nucleotides to immobilized GRP78ATPase. As to conditions: for Kd: 25 °C, mean ± SD, n = 3; for binding to GRP78ATPase upon removal of Mg++ (in words): 5 mM EDTA. The procedure: Successful transformants were grown in Luria Bertani broth (Sigma) for 16 hrs at 37°C, and then transferred to Terrific Broth (Sigma). Growth at 37°C continued until the OD600 reached ~3.0, whereupon the temperature was lowered to 18°C and protein expression was induced by the addition of 0.1 mM isopropyl β-D-thiogalactopyranoside. Sixteen hours post-induction, cells were collected by centrifugation and resuspended in binding buffer (30 mM Tris-HCl pH 7.5, 200 mM NaCl, 1 mM β-ME) supplemented with 0.1% octylphenoxypolyethoxyethanol, 1 mM benzamidine, and 1 mM phenylmethanesulfonyl fluoride. Cells were lysed by French press, and the lysates were clarified by centrifugation. The supernatant was loaded on to a nickel-nitrilotriacetic acid column pre-equilibrated with binding buffer. Following a wash step with binding buffer containing 30 mM imidazole, the bound protein was eluted using a linear gradient from 30 to 500 mM imidazole. The eluate was then loaded on to a 26/60 Superdex 200 size exclusion column (GE Healthcare) pre-equilibrated with 30 mM Tris-HCl pH 7.5, 200 mM NaCl and 1 mM β-ME. Target protein-containing fractions were pooled and concentrated to 30 mg/ml using 10-kDa centrifugal filter units (Amicon), and then frozen in aliquots at -80°C until further use
SPR measurements were performed on Biacore T200 instrument (GE Healthcare) at 25 °C. Purified GRP78ATPase was immobilized on a CM5 sensorchip using NHS/EDC coupling following the manufacturer protocol to a level of ~7000 RUs, a reference surfaces without immobilized GRP78ATPase served as a control for nonspecific binding and refractive index changes. […] Buffer alone injections were used as blanks. […] The running buffer was 10 mM HEPES, pH 7.4, 150 mM NaCl, 0.005% P20 and 2 mM MgCl2. Biacore equilibrium responses recorded at the end of the association step were used to determine the dissociation constant (Kd). Nonspecific signal binding was removed by subtracting a reference channel without GRP78ATPase. Binding responses at the different concentrations were globally fitted to a saturation-binding model in Prism 6 (GraphPad Software Inc., California).
The effect of Mg^++ on binding affinities was explored by repeating the same SPR protocol with two additional running buffers. The first running buffer contained no addition of Mg^++ to determine the effect of Mg^++ co-purified with GRP78ATPase (10 mM HEPES, pH 7.4, 150 mM NaCl and 0.005% P20), and the second running buffer contained 5 mM EDTA to chelate any Mg^++ present in the system (10 mM HEPES, pH 7.4, 150 mM NaCl, 0.005% P20 and 5 mM EDTA).
A general note: SPR reads the build-up and loss of mass on a sensor chip optically.

Series [2] deals with human ecto-nucleotidases (NTPDase1, 2, 3, 8 and NPP1 and 3). As to conditions: cited from earlier work.
[3] abbreviates: SPR running buffer untreated (no addition of either MgCl2 or EDTA).
Where [4] appears, read: SPR running buffer with 2 mM MgCl2.
Setting [5] is: SPR running buffer with 5 mM EDTA (Mg++ removed).

What is called Kd is a measure of binding affinity in units of concentration. A higher Kd goes with lower affinity.

T1 sequence (P11021 26-407): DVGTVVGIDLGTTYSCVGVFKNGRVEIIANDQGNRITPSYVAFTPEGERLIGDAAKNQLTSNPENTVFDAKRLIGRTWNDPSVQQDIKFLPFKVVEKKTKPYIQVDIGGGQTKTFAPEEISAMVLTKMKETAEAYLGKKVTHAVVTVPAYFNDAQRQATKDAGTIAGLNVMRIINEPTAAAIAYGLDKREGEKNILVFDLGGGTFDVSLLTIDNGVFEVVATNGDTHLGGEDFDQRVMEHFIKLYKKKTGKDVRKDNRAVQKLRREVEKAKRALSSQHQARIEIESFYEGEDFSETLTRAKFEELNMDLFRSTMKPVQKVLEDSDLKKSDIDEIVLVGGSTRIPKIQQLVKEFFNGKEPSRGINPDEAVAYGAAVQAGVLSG

Consider `Nc1ncnc2c1ncn2[C@@H]1O[C@H](COP(=O)(O)OP(=O)(O)OP(=O)(O)O)[C@@H](O)[C@H]1O` [ATP], for which the Kd was found to be 0.78 µM in series [1] (setting [3]), 0.45 µM in series [1] (setting [4]) and 9.8 µM in series [1] (setting [5]).

Consider `Nc1ncnc2c1ccn2C1OC(COP(=O)(O)OP(=O)(O)OP(=O)(O)O)C(O)C1O` (stereo not drawn) [7-deazaATP], for which the Kd turned out to be 0.15 µM in series [1] (setting [3]), 0.03 µM in series [1] (setting [4]) and 0.9 µM in series [1] (setting [5]).

On to `Nc1ncnc2c1ncn2C1OC(COP(=O)(O)OP(=O)(O)C(Br)(Br)P(=O)(O)O)C(O)C1O` (stereo not drawn) [AMPPCBrP], for which the “hydrolysis by most human ecto-nucleotidases” value in series [2] is recorded as “cannot hydrolyze”.

Turning to `Nc1ncnc2c1ncn2[C@@H]1O[C@H](COP(=O)(O)OP(=O)(O)CP(=O)(O)O)[C@@H](O)[C@H]1O` [AMPPCP], in series [1], the “binding to GRP78ATPase upon removal of Mg++ (in words)” value is “almost abolished binding”. In addition, the Kd in series [1] (setting [3]) was 52 µM; in series [1] (setting [4]) it was 59 µM; in series [1] (setting [5]), more than 1000 µM. Also, in series [1] (purified GRP78ATPase, SPR), the “affinity relative to ATP (in words)” value is given as “two-orders of magnitude lower”.

Take `Nc1ncnc2c1ncn2[C@H]1C[C@H](O)[C@@H](COP(=O)(O)OP(=O)(O)OP(=O)(O)O)O1` [2'-deoxyATP]: the “binding to GRP78ATPase upon removal of Mg++ (in words)” value in series [1] is “nearly abolished the binding”. Besides, the values for the Kd in series [1] (setting [3]) and in series [1] (setting [5]) were 750 µM and more than 1000 µM, respectively.

(Values after publication PMC4856263, “Probing the ATP Site of GRP78 with Nucleotide Triphosphate Analogs” (PLoS ONE, 2016).)
